Laboratory results published in BindingDB's records for doi:10.1016/j.ejmech.2019.02.016 (National Health Research Institutes, 2019).

experiment: Inhibition of NS5A in HCV genotype 1b infected in human HuH7 replicon cells assessed as reduction in subgenomic viral RNA replication treated for 2 days followed by compound washout and subsequent compound dosing measured after 1 day by SEAP reporter gene assay

Row | SMILES | EC50 [nM]
1 | COC(=O)N[C@H](C(=O)N1CCC[C@H]1c1ncc(-c2ccc(-c3ccc(-c4cnc([C@@H]5CCCN5C(=O)[C@@H](NC(=O)OC)c5ccccc5)s4)cc3)cc2)s1)c1ccccc1 | 41
2 | O=C(N[C@@H](C(=O)N1CCC[C@H]1c1ncc(-c2ccc(-c3ccc(-c4cnc([C@@H]5CCCN5C(=O)[C@H](NC(=O)C5CC5)C5CCCCC5)s4)cc3)cc2)s1)C1CCCCC1)C1CC1 | > 50000
3 | O=C(CCN1CCOCC1)N[C@H](C(=O)N1CCC[C@H]1c1ncc(-c2ccc(-c3ccc(-c4cnc([C@@H]5CCCN5C(=O)[C@H](NC(=O)CCN5CCOCC5)c5ccccc5)s4)cc3)cc2)s1)c1ccccc1 | 2.6
4 | O=C(N[C@@H](C(=O)N1CCC[C@H]1c1ncc(-c2ccc(-c3ccc(-c4cnc([C@@H]5CCCN5C(=O)[C@H](NC(=O)c5cccs5)c5ccccc5)s4)cc3)cc2)s1)c1ccccc1)c1cccs1 | 1.4
5 | O=C(N[C@@H](C(=O)N1CCC[C@H]1c1ncc(-c2ccc(-c3ccc(-c4cnc([C@@H]5CCCN5C(=O)[C@H](NC(=O)C5CCC5)c5ccccc5)s4)cc3)cc2)s1)c1ccccc1)C1CCC1 | 0.007
6 | O=C(N[C@H](C(=O)N1CCC[C@H]1c1ncc(-c2ccc(-c3ccc(-c4cnc([C@@H]5CCCN5C(=O)[C@H](NC(=O)N5CCOCC5)c5ccccc5)s4)cc3)cc2)s1)c1ccccc1)N1CCOCC1 | 1.1
7 | O=C(N[C@H](C(=O)N1CCC[C@H]1c1ncc(-c2ccc(-c3ccc(-c4cnc([C@@H]5CCCN5C(=O)[C@H](NC(=O)C5CCCCC5)c5ccccc5)s4)cc3)cc2)s1)c1ccccc1)C1CCCCC1 | 40
8 | CN1CCN(CCC(=O)N[C@@H](C(=O)N2CCC[C@H]2c2ncc(-c3ccc(-c4ccc(-c5cnc([C@@H]6CCCN6C(=O)[C@H](NC(=O)CCN6CCN(C)CC6)c6ccccc6)s5)cc4)cc3)s2)c2ccccc2)CC1 | 7.2
9 | COC(=O)N[C@H](C(=O)N1CCC[C@H]1c1ncc(-c2ccc(-c3ccc(-c4cnc([C@@H]5CCCN5C(=O)[C@H](NC(=O)OC)c5ccccc5)s4)cc3)cc2)s1)c1ccccc1 | 108
10 | COC(=O)N[C@@H](C(=O)N1CCC[C@H]1c1ncc(-c2ccc(-c3ccc(-c4cnc([C@@H]5CCCN5C(=O)[C@H](NC(=O)OC)c5ccccc5)s4)cc3)cc2)s1)c1ccccc1 | 0.19
11 | CCOC(=O)N[C@H](C(=O)N1CCC[C@H]1c1ncc(-c2ccc(-c3ccc(-c4cnc([C@@H]5CCCN5C(=O)[C@@H](NC(=O)OCC)C(C)C)s4)cc3)cc2)s1)C(C)C | 327
12 | CC(C)[C@H](NC(=O)Oc1ccccc1)C(=O)N1CCC[C@H]1c1ncc(-c2ccc(-c3ccc(-c4cnc([C@@H]5CCCN5C(=O)[C@@H](NC(=O)Oc5ccccc5)C(C)C)s4)cc3)cc2)s1 | 2820
13 | COC(=O)N[C@@H](C)C(=O)N1CCC[C@H]1c1ncc(-c2ccc(-c3ccc(-c4cnc([C@@H]5CCCN5C(=O)[C@H](C)NC(=O)OC)s4)cc3)cc2)s1 | 159
14 | CCC[C@H](NC(=O)OC)C(=O)N1CCC[C@H]1c1ncc(-c2ccc(-c3ccc(-c4cnc([C@@H]5CCCN5C(=O)[C@H](CCC)NC(=O)OC)s4)cc3)cc2)s1 | 123
15 | COC(=O)N[C@@H](CC(C)C)C(=O)N1CCC[C@H]1c1ncc(-c2ccc(-c3ccc(-c4cnc([C@@H]5CCCN5C(=O)[C@H](CC(C)C)NC(=O)OC)s4)cc3)cc2)s1 | 179
16 | CC(C)C[C@@H](NC(=O)C1CC1)C(=O)N1CCC[C@H]1c1ncc(-c2ccc(-c3ccc(-c4cnc([C@@H]5CCCN5C(=O)[C@@H](CC(C)C)NC(=O)C5CC5)s4)cc3)cc2)s1 | 27
17 | CC(C)[C@@H](NC(=O)C1CC1)C(=O)N1CCC[C@H]1c1ncc(-c2ccc(-c3ccc(-c4cnc([C@@H]5CCCN5C(=O)[C@H](NC(=O)C5CC5)C(C)C)s4)cc3)cc2)s1 | 732
18 | CCC[C@@H](NC(=O)C1CC1)C(=O)N1CCC[C@H]1c1ncc(-c2ccc(-c3ccc(-c4cnc([C@@H]5CCCN5C(=O)[C@@H](CCC)NC(=O)C5CC5)s4)cc3)cc2)s1 | 92
19 | CC[C@@H](NC(=O)C1CC1)C(=O)N1CCC[C@H]1c1ncc(-c2ccc(-c3ccc(-c4cnc([C@@H]5CCCN5C(=O)[C@@H](CC)NC(=O)C5CC5)s4)cc3)cc2)s1 | 433
